From publication PMC8119466, “A screen of FDA-approved drugs identifies inhibitors of protein tyrosine phosphatase 4A3 (PTP4A3 or PRL-3)” (Scientific Reports, 2021)
Structures can show the parent of a compound that is named as a salt. Where two headings read alike, the source gives them in different places.

Columns and labels:
Assay type in all cases: biochemical
recombinant PRL-2 = molecular target: T1, recombinant PRL-2 (Homo sapiens, UniProt Q12974); assay: In vitro phosphatase assay (DiFMUP hydrolysis), PRL-2;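 note: PRL-2 activity read as DiFMUP hydrolysis after 20 min at room temperature with drug, enzyme first pre-reduced at 4 °C for 20 min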
T1 construct: 6xHis (N, cleaved yes); made in house; host or cells: E. coli One Shot BL21 Star
T1 sequence (Q12974 1-167): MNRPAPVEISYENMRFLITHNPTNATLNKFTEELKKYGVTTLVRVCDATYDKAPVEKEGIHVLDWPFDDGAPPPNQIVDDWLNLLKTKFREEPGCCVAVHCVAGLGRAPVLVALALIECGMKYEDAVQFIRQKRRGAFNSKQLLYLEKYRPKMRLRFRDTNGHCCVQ

recombinant PRL-1 = molecular target: T2, recombinant PRL-1 (Homo sapiens, UniProt Q93096); assay: In vitro phosphatase assay (DiFMUP hydrolysis), PRL-1; note: test concentration or dose not given here
T2 construct: 6xHis (N, cleaved yes); made in house; host or cells: E. coli One Shot BL21 Star
T2 sequence (Q93096 1-173): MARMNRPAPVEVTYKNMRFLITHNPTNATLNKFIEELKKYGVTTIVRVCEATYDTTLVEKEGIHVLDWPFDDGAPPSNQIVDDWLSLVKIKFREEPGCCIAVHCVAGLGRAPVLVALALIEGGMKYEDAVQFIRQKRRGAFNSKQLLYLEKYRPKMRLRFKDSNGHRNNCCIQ

recombinant PRL-3 = molecular target: T3, recombinant PRL-3 (Homo sapiens, UniProt O75365); assay: In vitro phosphatase assay (DiFMUP hydrolysis), PRL-3; note: test concentration or dose not given here
T3 construct: 6xHis (N, cleaved yes); made in house; host or cells: E. coli One Shot BL21 Star
T3 sequence (O75365 whole entry): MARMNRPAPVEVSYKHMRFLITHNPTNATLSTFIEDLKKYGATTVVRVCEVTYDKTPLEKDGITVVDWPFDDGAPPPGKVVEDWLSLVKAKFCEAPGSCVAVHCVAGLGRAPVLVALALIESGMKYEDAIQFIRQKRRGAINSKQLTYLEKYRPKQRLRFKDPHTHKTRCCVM

[1] = FDA-approved drug screen, compared to DMSO
[2] = FDA-approved drug screen, activity compared to DMSO

| Compound | % Phosphatase Activity (compared to DMSO) PRL-2 (recombinant PRL-2; [1]) | % Phosphatase Activity (compared to DMSO) PRL-1 (recombinant PRL-1; [1]) | % Phosphatase Activity (compared to DMSO) PRL-3 (recombinant PRL-3; [1]) | also measured |
| --- | --- | --- | --- | --- |
| CCOC(=O)O[C@]1(C(=O)OCCl)CC[C@H]2[C@@H]3CCC4=CC(=O)C=C[C@]4(C)[C@H]3[C@@H](O)C[C@@]21C [Loteprednol etabonate] | 89% | 100% | 82% |  |
| O=C1CN2Cc3c(ccc(Cl)c3Cl)N=C2N1 [Anagrelide HCl] | 91% | 93% | 80% |  |
| C[C@H](CS)C(=O)N1CCC[C@H]1C(=O)O [Captopril] | 99% | 90% | 82% |  |
| Isosorbide | 89% | 90% | 69% |  |
| Cc1cccc(N(C)C(=S)Oc2ccc3ccccc3c2)c1 [Tolnaftate] |  |  |  | % Phosphatase Activity (compared to DMSO) PRL-2 (recombinant PRL-2; [2]): 114%; % Phosphatase Activity (compared to DMSO) PRL-1 (recombinant PRL-1; [2]): 98%; % Phosphatase Activity (compared to DMSO) PRL-3 (recombinant PRL-3; [2]): 89% |
| Cc1cccn2c(=O)c(-c3nnn[nH]3)cnc12 [Pemirolast potassium] | 301% | 330% | 195% |  |
| CC1=C(C(=O)O)N2C(=O)[C@@H](NC(=O)[C@H](N)C3=CCC=CC3)[C@H]2SC1 [Cefradine] | 76% | 95% | 102% |  |
| CN(CCOc1ccc(CC2SC(=O)NC2=O)cc1)c1ccccn1 (stereo not drawn) [Rosiglitazone] | 111% | 90% | 79% |  |
| Cc1cccc(Nc2ccccc2C(=O)O)c1C [Mefenamic Acid] | 107% | 98% | 82% |  |
| CC(C)(C)C#Cc1cc(N(C(=O)[C@H]2CC[C@H](C)CC2)[C@H]2CC[C@H](O)CC2)c(C(=O)O)s1 [VX-222 (VCH-222, Lomibuvir)] |  |  |  | % Phosphatase Activity (compared to DMSO) PRL-2 (recombinant PRL-2; [2]): 85%; % Phosphatase Activity (compared to DMSO) PRL-1 (recombinant PRL-1; [2]): 91%; % Phosphatase Activity (compared to DMSO) PRL-3 (recombinant PRL-3; [2]): 76% |
| CNC(=O)c1ccccc1Sc1ccc2c(/C=C/c3ccccn3)n[nH]c2c1 [Axitinib] | 164% | 102% | 96% |  |
| CCOC(=O)c1ccc(OC(=O)CCCCCN=C(N)N)cc1.CS(=O)(=O)O [Gabexate Mesylate] | 103% | 93% | 80% |  |
| CO/N=C(\C(=O)N[C@@H]1C(=O)N2C(C(=O)O)=C(COC(N)=O)CS[C@H]12)c1ccco1 [Cefuroxime sodium] | 96% | 96% | 82% |  |
| OCCOCCN1CCN(C2=Nc3ccccc3Sc3ccccc32)CC1 [Quetiapine Fumarate] |  |  |  | % Phosphatase Activity (compared to DMSO) PRL-2 (recombinant PRL-2): 87%; % Phosphatase Activity (compared to DMSO) PRL-1 (recombinant PRL-1): 80%; % Phosphatase Activity (compared to DMSO) PRL-3 (recombinant PRL-3): 93% |
| C[C@@H](O)[C@H]1C(=O)N2C(C(=O)[O-])=C(SC3Cn4cnc[n+]4C3)[C@H](C)[C@H]12 (stereo partly drawn) [Biapenem] | 74% | 100% | 93% |  |
| O=C(N[C@H](CO)[C@H](O)c1ccc([N+](=O)[O-])cc1)C(Cl)Cl [Chloramphenicol] | 80% | 96% | 83% |  |
| COC(=O)C1=C(C)NC(C)=C(C(=O)OC(C)(C)CN(C)CCC(c2ccccc2)c2ccccc2)C1c1cccc([N+](=O)[O-])c1.Cl (stereo not drawn) [Lercanidipine (hydrochloride)] | 101% | 87% | 84% |  |
| O=C(/C=C\n1cnc(-c2cc(C(F)(F)F)cc(C(F)(F)F)c2)n1)NNc1cnccn1 [KPT-330] | 69% | 87% | 97% |  |
| CS(=O)(=O)O.Oc1ccc(C2CNCCc3c2cc(O)c(O)c3Cl)cc1 (stereo not drawn) [Fenoldopam (mesylate)] | 102% | 108% | 96% |  |
| CCOC(=O)N1CCC(=C2c3ccc(Cl)cc3CCc3cccnc32)CC1 [Loratadine] | 90% | 89% | 65% |  |

| Compound | % Phosphatase Activity (compared to DMSO) PRL-2 (recombinant PRL-2; [1]) | % Phosphatase Activity (compared to DMSO) PRL-1 (recombinant PRL-1; [1]) | % Phosphatase Activity (compared to DMSO) PRL-3 (recombinant PRL-3; [1]) | also measured |
| --- | --- | --- | --- | --- |
| CCc1c2c(nc3ccc(OC(=O)N4CCC(N5CCCCC5)CC4)cc13)-c1cc3c(c(=O)n1C2)COC(=O)[C@]3(O)CC [Irinotecan] | 5728% | 4706% | 3887% |  |
| C[C@H](N)[C@H](O)c1cccc(O)c1 [Metaraminol Bitartrate] | 106% | 112% | 94% |  |
| Cl.NCC(O)c1ccc(O)cc1 (racemic) [(+,-)-Octopamine HCl] | 102% | 110% | 78% |  |
| CNC(=O)[C@H](Cc1ccccc1)NC(=O)[C@H](CC(C)C)[C@H](CSc1cccs1)C(=O)NO [Batimastat (BB-94)] | 79% | 88% | 89% |  |
| O=C(O)c1ccccc1O [Salicylic acid] | 124% | 103% | 98% |  |
| C=CC1=C(C(=O)O)N2C(=O)[C@@H](NC(=O)/C(=N\O)c3csc(N)n3)[C@H]2SC1 [Cefdinir] | 110% | 109% | 88% |  |
| C[n+]1ccccc1/C=N/O.[Cl-] [Pralidoxime (chloride)] | 91% | 99% | 105% |  |
| Nc1ccc(O)c(C(=O)O)c1 [Mesalamine] | 131% | 112% | 82% |  |
| CC(C)(Sc1cc(C(C)(C)C)c(O)c(C(C)(C)C)c1)Sc1cc(C(C)(C)C)c(O)c(C(C)(C)C)c1 [Probucol] | 122% | 100% | 78% |  |
| CO[C@H]1C[C@@H]2CC[C@@H](C)[C@@](O)(O2)C(=O)C(=O)N2CCCC[C@H]2C(=O)O[C@H]([C@H](C)C[C@@H]2CC[C@@H](OCCO)[C@H](OC)C2)CC(=O)[C@H](C)/C=C(\C)[C@@H](O)[C@@H](OC)C(=O)[C@H](C)C[C@H](C)/C=C/C=C/C=C/1C [Everolimus (RAD001)] | 86% | 86% | 76% |  |
| CC[C@@H]1C(=O)N(C)c2cnc(Nc3ccc(C(=O)N[C@H]4CC[C@H](N5CCN(CC6CC6)CC5)CC4)cc3OC)nc2N1C(C)C [Volasertib (BI 6727)] |  |  |  | % Phosphatase Activity (compared to DMSO) PRL-2 (recombinant PRL-2; [2]): 112%; % Phosphatase Activity (compared to DMSO) PRL-1 (recombinant PRL-1; [2]): 97%; % Phosphatase Activity (compared to DMSO) PRL-3 (recombinant PRL-3; [2]): 87% |
| CCCCOc1cc(C(=O)OCCN(CC)CC)ccc1N [Oxybuprocaine HCl] | 103% | 97% | 93% |  |
| C[C@]12CC[C@@H]3c4ccc(O)cc4CC[C@H]3[C@@H]1CC[C@@H]2OC(=O)CCC1CCCC1 [Estradiol Cypionate] | 109% | 96% | 74% |  |
| CC(C)(Oc1ccc(CCNC(=O)c2ccc(Cl)cc2)cc1)C(=O)O [Bezafibrate] | 119% | 123% | 90% |  |
| CCN(CCO)CCCC(C)Nc1ccnc2cc(Cl)ccc12 (stereo not drawn) [Hydroxychloroquine Sulfate] | 100% | 96% | 100% |  |
| CC(=O)S[C@@H]1CC2=CC(=O)CC[C@]2(C)[C@H]2CC[C@@]3(C)[C@@H](CC[C@@]34CCC(=O)O4)[C@H]12 [Spironolactone] |  |  |  | % Phosphatase Activity (compared to DMSO) PRL-2 (recombinant PRL-2; [2]): 87%; % Phosphatase Activity (compared to DMSO) PRL-1 (recombinant PRL-1; [2]): 84%; % Phosphatase Activity (compared to DMSO) PRL-3 (recombinant PRL-3; [2]): 68% |
| CN1CCC[C@@H]1Cc1c[nH]c2ccc(CCS(=O)(=O)c3ccccc3)cc12 [Eletriptan HBr] | 121% | 109% | 92% |  |
| Bacitracin | 94% | 96% | 82% |  |
| Cc1nc2n(c(=O)c1CCN1CCC(c3noc4cc(F)ccc34)CC1)CCCC2 [Risperidone] | 94% | 104% | 88% |  |
